Several values for one entry are separate records, joined by “and”; a condition that tells them apart may be missing. Identical values can stand only once. Inconclusive results and toxic doses are left out. How the source made its calls: active means survival T/C of 150% or more; inactive means T/C below 125% in these data.
Test system: P388 leukemia ip, CD2F1 mice, survival T/C
Assay: NCI In Vivo Anticancer Drug Screen. Data for tumor model P388 Leukemia (intraperitoneal) in CD2F1 (CDF1) mice
Details: endpoint: median survival time, higher = longer survival
In short: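 Mice carrying the transplanted tumor received test compound or vehicle. Survival was recorded in each group, and the value is the treated-group measurement divided by that of the vehicle-treated control group.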

[1] = dose: 100.0 mg/kg/injection, schedule: Q01DX009 (ip), vehicle: saline
[2] = dose: 60.0 mg/kg/injection, schedule: Q01DX005 (ip), vehicle: saline with Tween-80
[3] = dose: 50.0 mg/kg/injection, schedule: Q01DX009 (ip), vehicle: saline with Tween-80
[4] = dose: 100.0 mg/kg/injection, schedule: Q01DX009 (ip), vehicle: saline with Tween-80
[5] = dose: 200.0 mg/kg/injection, schedule: Q01DX009 (ip), vehicle: saline with Tween-80
[6] = dose: 60.0 mg/kg/injection, schedule: Q01DX005 (ip), vehicle: saline
[7] = dose: 120.0 mg/kg/injection, schedule: Q01DX005 (ip), vehicle: saline
[8] = dose: 240.0 mg/kg/injection, schedule: Q01DX005 (ip), vehicle: saline
[9] = dose: 30.0 mg/kg/injection, schedule: Q01DX005 (ip), vehicle: saline with Tween-80
[10] = dose: 50.0 mg/kg/injection, schedule: Q01DX005 (ip), vehicle: saline with Tween-80
[11] = dose: 100.0 mg/kg/injection, schedule: Q01DX005 (ip), vehicle: saline with Tween-80
[12] = dose: 200.0 mg/kg/injection, schedule: Q01DX005 (ip), vehicle: saline with Tween-80

Measured: T/C

Cc1ccc(/C=N\NC(=O)NN)cc1
inactive: dose: 25.0 mg/kg/injection, schedule: Q01DX005 (ip), vehicle: Klucel (hydroxypropylcellulose) (HPC) 97 % of control | dose: 50.0 mg/kg/injection, schedule: Q01DX005 (ip), vehicle: Klucel (hydroxypropylcellulose) (HPC) 102 % of control

O=[N+]([O-])c1ccc(SCc2ccccc2)c2nonc12
inactive: dose: 12.5 mg/kg/injection, schedule: Q01DX009 (ip), vehicle: suspension in saline 111 % of control | dose: 25.0 mg/kg/injection, schedule: Q01DX009 (ip), vehicle: saline 94 % of control | dose: 25.0 mg/kg/injection, schedule: Q01DX009 (ip), vehicle: suspension in saline 106 % of control | dose: 50.0 mg/kg/injection, schedule: Q01DX009 (ip), vehicle: saline 100 % of control | dose: 50.0 mg/kg/injection, schedule: Q01DX009 (ip), vehicle: suspension in saline 113 % of control | [1] 94 % of control

OC(C1=NNC(C(O)c2ccccc2)=NN1)c1ccccc1 (configuration not stated)
inactive: [2] 92 % of control | dose: 120.0 mg/kg/injection, schedule: Q01DX005 (ip), vehicle: saline with Tween-80 100 % of control | dose: 240.0 mg/kg/injection, schedule: Q01DX005 (ip), vehicle: saline with Tween-80 102 % of control

CNCCc1c(C2C3C(C=C(C)CC3(C)C)c3c(CCNC)c4ccccc4n32)[nH]c2ccccc12 (configuration not stated)
inactive: dose: 4.0 mg/kg/injection, schedule: Q01DX009 (ip), vehicle: saline 107 % of control | dose: 8.0 mg/kg/injection, schedule: Q01DX009 (ip), vehicle: saline 110 % of control | dose: 16.0 mg/kg/injection, schedule: Q01DX009 (ip), vehicle: saline 115 % of control | dose: 32.0 mg/kg/injection, schedule: Q01DX009 (ip), vehicle: saline 114 % of control

CC1=N/C(=C\c2ccccc2Br)C(=O)O1
inactive: dose: 50.0 mg/kg/injection, schedule: Q01DX005 (ip), vehicle: saline 114 % of control | dose: 100.0 mg/kg/injection, schedule: Q01DX005 (ip), vehicle: saline 119 % of control | dose: 200.0 mg/kg/injection, schedule: Q01DX005 (ip), vehicle: saline 119 % of control

Cc1ccc(NC(=O)Oc2ccc(C(C)(C)C)cc2Br)c([N+](=O)[O-])c1
inactive: [3] 96 % of control | [4] 97 % of control | [5] 101 % of control

CC(C(=O)O)C(C)(C)c1ccccc1 (configuration not stated)
inactive: dose: 100.0 mg/kg/injection, schedule: Q01DX001 (ip), vehicle: saline with Tween-80 100 % of control | dose: 200.0 mg/kg/injection, schedule: Q01DX001 (ip), vehicle: saline with Tween-80 99 % of control | dose: 400.0 mg/kg/injection, schedule: Q01DX001 (ip), vehicle: saline with Tween-80 105 % of control

COc1cc(C=C2C(=O)C=CC2=O)cc(OC)c1OC
inactive: dose: 1.25 mg/kg/injection, schedule: Q04DX002 (ip), vehicle: saline with Tween-80 107 % of control | dose: 2.5 mg/kg/injection, schedule: Q04DX002 (ip), vehicle: saline with Tween-80 99 % of control | dose: 5.0 mg/kg/injection, schedule: Q04DX002 (ip), vehicle: saline with Tween-80 104 % of control

N=C(N)SCc1ccc(C(=O)NN2C(=O)c3ccccc3C2=O)cc1
inactive: [3] 92 % of control | [4] 92 % of control | [5] 97 % of control

COC1OCCCO1
inactive: [6] 103 % of control | [7] 104 % of control | [8] 107 % of control

N#CCc1c(F)c(F)c(F)c(F)c1F
inactive: [9] 100 % of control | [2] 99 % of control and 108 % of control

CCCN(CCC)C(C)C(O)c1ccc2cc(Br)c3ccccc3c2c1 (configuration not stated)
inactive: [10] 98 % of control | [11] 99 % of control | [12] 100 % of control

Cc1ccc(S(=O)(=O)CC2OCC3OC(C)(C)OC23)cc1 (configuration not stated)
inactive: dose: 12.5 mg/kg/injection, schedule: Q01DX009 (ip), vehicle: water 100 % of control | dose: 25.0 mg/kg/injection, schedule: Q01DX009 (ip), vehicle: water 93 % of control | dose: 50.0 mg/kg/injection, schedule: Q01DX009 (ip), vehicle: water 89 % of control | dose: 100.0 mg/kg/injection, schedule: Q01DX009 (ip), vehicle: water 100 % of control | dose: 200.0 mg/kg/injection, schedule: Q01DX009 (ip), vehicle: water 94 % of control

CCOC(=O)c1ccc(N=NC2Sc3nc4ccccc4n3C2=O)cc1 (configuration not stated)
inactive: dose: 7.5 mg/kg/injection, schedule: Q01DX005 (ip), vehicle: Klucel (hydroxypropylcellulose) (HPC) 97 % of control | dose: 15.0 mg/kg/injection, schedule: Q01DX005 (ip), vehicle: Klucel (hydroxypropylcellulose) (HPC) 92 % of control | dose: 30.0 mg/kg/injection, schedule: Q01DX005 (ip), vehicle: Klucel (hydroxypropylcellulose) (HPC) 90 % of control

Nc1ncnc2c1ncn2CC(O)CN(CCO)CCO (configuration not stated)
inactive: [6] 97 % of control | [7] 95 % of control | [8] 96 % of control

CCOc1ccccc1NC1=C(Cl)C(=O)c2ccccc2C1=O
inactive: dose: 7.5 mg/kg/injection, schedule: Q01DX005 (ip), vehicle: saline with Tween-80 100 % of control | dose: 15.0 mg/kg/injection, schedule: Q01DX005 (ip), vehicle: saline with Tween-80 94 % of control | [9] 97 % of control | [2] 103 % of control

CC(=O)OC1CCC(C2CCCCC2)CC1 (configuration not stated)
inactive: [1] 102 % of control | dose: 200.0 mg/kg/injection, schedule: Q01DX009 (ip), vehicle: saline 97 % of control | dose: 400.0 mg/kg/injection, schedule: Q01DX009 (ip), vehicle: saline 101 % of control

CCOC(=O)C(=O)Nc1c(C(C)=O)cc(C)c(C)c1C#N
inactive: dose: 50.0 mg/kg/injection, schedule: Q01DX009 (ip), vehicle: saline + alcohol 92 % of control | dose: 100.0 mg/kg/injection, schedule: Q01DX009 (ip), vehicle: saline + alcohol 97 % of control | dose: 200.0 mg/kg/injection, schedule: Q01DX009 (ip), vehicle: saline + alcohol 96 % of control

Fc1ccc(N2C(Cl)(Cl)C23c2ccccc2-c2ccccc23)cc1
inactive: dose: 12.5 mg/kg/injection, schedule: Q01DX009 (ip), vehicle: saline with Tween-80 104 % of control | dose: 25.0 mg/kg/injection, schedule: Q01DX009 (ip), vehicle: saline with Tween-80 103 % of control | [3] 94 % of control | [4] 103 % of control | [5] 112 % of control

Nc1nnc2nc(CC(=O)c3cccc([N+](=O)[O-])c3)/c(=C/C(=O)c3cccc([N+](=O)[O-])c3)n12
inactive: [10] 94 % of control | [11] 91 % of control | [12] 101 % of control

O=C1OC(COCc2ccccc2)C/C1=C\c1ccc2c(c1)OCO2 (configuration not stated)
inactive: dose: 100.0 mg/kg/injection, schedule: Q04DX002 (ip), vehicle: saline with Tween-80 95 % of control | dose: 200.0 mg/kg/injection, schedule: Q04DX002 (ip), vehicle: saline with Tween-80 86 % of control | dose: 400.0 mg/kg/injection, schedule: Q04DX002 (ip), vehicle: saline with Tween-80 86 % of control

CCN(CC)CCCC(C)NCC(O)c1cc(-c2ccc(Cl)cc2)nc2ccccc12 (configuration not stated)
inactive: [10] 107 % of control | [11] 112 % of control

CCCn1c(O)c(C(=O)CC)sc1=S
inactive: dose: 60.0 mg/kg/injection, schedule: Q01DX005 (ip), vehicle: Klucel (hydroxypropylcellulose) (HPC) 97 % of control | dose: 120.0 mg/kg/injection, schedule: Q01DX005 (ip), vehicle: Klucel (hydroxypropylcellulose) (HPC) 99 % of control

CC(C)OC1CC(C)(C)c2c(-c3ccccc3)nn(-c3ccccc3)c2O1 (configuration not stated)
inactive: [3] 109 % of control | [4] 98 % of control | [5] 107 % of control

— PubChem BioAssay AID330 (DTP/NCI, 2004)
